The text below walks through data of patent US20040006236A1, “Diaminopropionic acid derivatives” (priority 1999, published 2004).

pIC50: −log10 of the molar value. Structures can show the parent of a compound that is named as a salt. Where two headings read alike, the source gives them in different places.

Assay [1] relates to T lymphocyte proliferation (C57BI/6 spleen cells with irradiated BALB/c spleen cells). The assay is described as follows: Mixed lymphocyte reaction (MLR), one-way. The note with it: read-out: MLR IC50. The assay is classed as cell-based, mice. An outline of the steps: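 One-way murine MLR: C57BI/6 responder splenocytes proliferate against irradiated BALB/c stimulators while exposed to serially diluted antagonists in supplemented RPMI1640 for 3 days. Proliferation read as [3H]-thymidine uptake over a final 6 h pulse (0.5 μCi/well), scintillation counted.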

The target of assay [2] is T1, LFA-1 binding to immobilized ICAM-1 (Homo sapiens, UniProt P05107+P20701).
T1 construct: made in house; host or cells: transfected 293 cells (LFA-1)
The assay can be described thus: LFA-1/ICAM-1 protein-protein assay (solid-phase ELISA). The note with it: read-out: LFA-1/ICAM-1 Protein-Protein Assay IC50. In outline:
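Human 5dICAM-Ig (ICAM-1 extracellular domain–IgG Fc) coated on plates; membrane-bound LFA-1 from transfected 293 cells (280 ng/mL) added with compound in Mn2+-containing HEPES buffer pH 7.2, 2 h at 37° C. Bound LFA-1 detected via anti-β2 antibody and HRP/TMB at 450 nm; IC50s determined.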
Background: In an ELISA, binding on a coated surface is turned into a signal by an enzyme label.

T1 sequence (P20701 26-1170): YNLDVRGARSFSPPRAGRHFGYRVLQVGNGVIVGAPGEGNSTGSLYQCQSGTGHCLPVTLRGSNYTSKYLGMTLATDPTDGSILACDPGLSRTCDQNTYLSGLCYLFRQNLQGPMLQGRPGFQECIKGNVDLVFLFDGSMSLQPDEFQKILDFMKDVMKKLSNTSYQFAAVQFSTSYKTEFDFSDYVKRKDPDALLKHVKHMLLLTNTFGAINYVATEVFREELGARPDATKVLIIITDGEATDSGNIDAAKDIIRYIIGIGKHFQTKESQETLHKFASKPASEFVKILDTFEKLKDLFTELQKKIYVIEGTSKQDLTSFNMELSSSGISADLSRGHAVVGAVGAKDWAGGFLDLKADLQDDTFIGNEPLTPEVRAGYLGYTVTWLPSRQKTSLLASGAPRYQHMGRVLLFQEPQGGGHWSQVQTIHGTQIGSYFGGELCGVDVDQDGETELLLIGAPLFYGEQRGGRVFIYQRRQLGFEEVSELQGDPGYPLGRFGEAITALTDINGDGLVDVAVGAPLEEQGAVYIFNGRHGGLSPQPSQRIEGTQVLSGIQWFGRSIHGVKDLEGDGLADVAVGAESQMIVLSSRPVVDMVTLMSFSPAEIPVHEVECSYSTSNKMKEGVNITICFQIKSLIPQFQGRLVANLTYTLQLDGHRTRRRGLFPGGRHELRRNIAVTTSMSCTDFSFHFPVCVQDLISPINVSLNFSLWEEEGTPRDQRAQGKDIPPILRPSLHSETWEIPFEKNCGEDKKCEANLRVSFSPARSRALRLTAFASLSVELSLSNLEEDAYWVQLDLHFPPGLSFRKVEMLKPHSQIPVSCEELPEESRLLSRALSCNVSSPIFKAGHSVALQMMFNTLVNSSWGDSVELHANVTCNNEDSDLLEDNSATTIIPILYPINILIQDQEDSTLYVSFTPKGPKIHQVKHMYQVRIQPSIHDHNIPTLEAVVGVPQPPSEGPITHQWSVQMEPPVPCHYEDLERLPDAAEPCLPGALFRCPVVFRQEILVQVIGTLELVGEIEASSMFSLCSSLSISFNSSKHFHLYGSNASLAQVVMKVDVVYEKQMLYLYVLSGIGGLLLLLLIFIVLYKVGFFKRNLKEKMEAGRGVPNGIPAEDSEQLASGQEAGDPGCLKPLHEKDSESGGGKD
T1 sequence (P05107 23-769): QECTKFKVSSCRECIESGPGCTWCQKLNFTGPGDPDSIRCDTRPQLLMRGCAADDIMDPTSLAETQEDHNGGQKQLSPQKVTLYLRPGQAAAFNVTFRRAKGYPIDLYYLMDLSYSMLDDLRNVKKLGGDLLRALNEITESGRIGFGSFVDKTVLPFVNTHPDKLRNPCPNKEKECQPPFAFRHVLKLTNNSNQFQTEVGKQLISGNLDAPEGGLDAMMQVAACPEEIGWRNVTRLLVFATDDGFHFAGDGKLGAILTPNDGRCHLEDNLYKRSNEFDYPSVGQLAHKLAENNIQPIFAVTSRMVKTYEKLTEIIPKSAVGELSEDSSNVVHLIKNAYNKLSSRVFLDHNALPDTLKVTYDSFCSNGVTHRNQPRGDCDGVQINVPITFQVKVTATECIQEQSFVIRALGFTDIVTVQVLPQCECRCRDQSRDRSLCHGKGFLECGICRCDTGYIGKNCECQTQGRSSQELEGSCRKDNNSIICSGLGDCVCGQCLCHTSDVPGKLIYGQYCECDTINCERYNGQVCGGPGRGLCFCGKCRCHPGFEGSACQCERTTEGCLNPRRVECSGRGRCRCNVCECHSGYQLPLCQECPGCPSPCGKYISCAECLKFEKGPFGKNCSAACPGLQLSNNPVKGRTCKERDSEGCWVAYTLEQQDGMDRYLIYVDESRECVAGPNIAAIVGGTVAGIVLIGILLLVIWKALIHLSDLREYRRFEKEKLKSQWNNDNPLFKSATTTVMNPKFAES

With `O=C(NCc1cccc(O)c1)c1ccc(C(=O)N[C@@H](CNC(=O)c2cc3ccccc3s2)C(=O)O)c(Cl)c1` [Example 175], the pIC50 in assay [1] (Mus musculus, T-lymphocyte) is 5.40; in assay [2], 8.59.
The corresponding values for `O=C(NCc1cccc(O)c1)c1ccc(C(=O)N[C@@H](CNC(=O)c2ccc3ncsc3c2)C(=O)O)c(Cl)c1` [Example 177] are 6.02 and 9.00.
For the compound `O=C(NCc1cccc(O)c1)c1ccc(C(=O)N[C@@H](CNC(=O)c2cccc3ccccc23)C(=O)O)c(Cl)c1` [Example 178], the pIC50 is 6.05 in assay [1] (Mus musculus, T-lymphocyte) and 8.64 in assay [2].
On the same counts, the results for `O=C(NCc1cccc(O)c1)c1ccc(C(=O)N[C@@H](CNC(=O)c2ccc3ccccc3c2)C(=O)O)c(Cl)c1` [Example 179] are 5.27 and 8.44.
On the same counts, the results for `O=C(NCc1cccc(O)c1)c1ccc(C(=O)N[C@@H](CNC(=O)c2cnc3ccccc3c2)C(=O)O)c(Cl)c1` [Example 183] are 5.34 and 7.92.
The corresponding values for `O=C(NCc1cccc(O)c1)c1ccc(C(=O)N[C@@H](CNC(=O)c2cc(=O)c3ccccc3o2)C(=O)O)c(Cl)c1` [Example 187] are 5.55 and 7.92.
`O=C(NCc1cccc(O)c1)c1ccc(C(=O)N[C@@H](CNC(=O)c2ccc3c(c2)S(=O)(=O)c2ccccc2C3=O)C(=O)O)c(Cl)c1` [Example 192]: the pIC50 was 5.77 in assay [1] (Mus musculus, T-lymphocyte) and 8.89 in assay [2].
The corresponding values for `CC(=O)NC[C@H](NC(=O)c1ccc(C(=O)NCc2cccc(O)c2)cc1Cl)C(=O)O` [Example 193] are 6.08 and 9.15.
On to `CC(C)C(=O)NC[C@H](NC(=O)c1ccc(C(=O)NCc2cccc(O)c2)cc1Cl)C(=O)O` [Example 194], for which the pIC50 in assay [1] (Mus musculus, T-lymphocyte) was 6.10; in assay [2], 8.72.
For the compound `CC(C)CC(=O)NC[C@H](NC(=O)c1ccc(C(=O)NCc2cccc(O)c2)cc1Cl)C(=O)O` [Example 195], the pIC50 in assay [1] (Mus musculus, T-lymphocyte) was 6.08; in assay [2], 8.70.
`O=C(NCc1cccc(O)c1)c1ccc(C(=O)N[C@@H](CNC(=O)[C@@H]2CCCN2)C(=O)O)c(Cl)c1` [Example 196]: the pIC50 was 5.26 in assay [1] (Mus musculus, T-lymphocyte) and 8.55 in assay [2].
The corresponding values for `CSCC[C@H](N)C(=O)NC[C@H](NC(=O)c1ccc(C(=O)NCc2cccc(O)c2)cc1Cl)C(=O)O` [Example 197] are 4.65 and 8.31.
The corresponding values for `NCCCC[C@H](N)C(=O)NC[C@H](NC(=O)c1ccc(C(=O)NCc2cccc(O)c2)cc1Cl)C(=O)O` [Example 198] are 4.67 and 7.92.
`N[C@@H](Cc1ccccc1)C(=O)NC[C@H](NC(=O)c1ccc(C(=O)NCc2cccc(O)c2)cc1Cl)C(=O)O` [Example 199]: the pIC50 is 4.72 in assay [1] (Mus musculus, T-lymphocyte) and 8.13 in assay [2].
On to `NC(=O)C[C@H](N)C(=O)NC[C@H](NC(=O)c1ccc(C(=O)NCc2cccc(O)c2)cc1Cl)C(=O)O` [Example 200], for which the pIC50 was 5.51 in assay [1] (Mus musculus, T-lymphocyte) and 8.54 in assay [2].
As for `N[C@@H](Cc1c[nH]c2ccccc12)C(=O)NC[C@H](NC(=O)c1ccc(C(=O)NCc2cccc(O)c2)cc1Cl)C(=O)O` [Example 201], the pIC50 in assay [1] (Mus musculus, T-lymphocyte) was 4.76; in assay [2] it was 8.12.
Consider `N[C@@H](CCC(=O)NC[C@H](NC(=O)c1ccc(C(=O)NCc2cccc(O)c2)cc1Cl)C(=O)O)C(=O)O` [Example 202], for which the pIC50 in assay [1] (Mus musculus, T-lymphocyte) was 6.30; in assay [2], 8.74.
With `O=C(NC[C@H](NC(=O)c1c(Cl)cccc1Cl)C(=O)O)c1ccccc1` [Example 219], the pIC50 in assay [1] (Mus musculus, T-lymphocyte) is 5.14; in assay [2] it was 7.89.
With `O=C(NC[C@H](NC(=O)c1c(Cl)cccc1Cl)C(=O)O)c1ccc(Br)s1` [Example 223], the pIC50 is 5.44 in assay [1] (Mus musculus, T-lymphocyte) and 8.19 in assay [2].
On the same counts, the results for `O=C(NC[C@H](NC(=O)c1c(F)cccc1Cl)C(=O)O)c1ccc(Br)s1` [Example 224] are 4.95 and 7.62.
`O=C(NCc1cccc(O)c1)c1ccc(C(=O)N[C@@H](CNC(=O)c2cc(F)cc(F)c2)C(=O)O)c(Cl)c1` [Example 252, N-[2-chloro-4-[[[(3-hydroxyphenyl)methyl]amino]carbonyl]benzoyl]-3-(3,5-difluorobenzoyl)amino-L-alanine]: the pIC50 in assay [1] (Mus musculus, T-lymphocyte) was 6.47; in assay [2], 9.05.
`O=C(NCc1cccc(O)c1)c1ccc(C(=O)N[C@@H](CNC(=O)c2csnn2)C(=O)O)c(Cl)c1` [Example 254]: the pIC50 in assay [1] (Mus musculus, T-lymphocyte) is 6.34; in assay [2] it was 9.15.
For the compound `Cc1nnsc1C(=O)NC[C@H](NC(=O)c1ccc(C(=O)NCc2cccc(O)c2)cc1Cl)C(=O)O` [Example 255], the pIC50 in assay [1] (Mus musculus, T-lymphocyte) was 5.73; in assay [2] it was 8.54.
With `O=C(NCc1cccc(O)c1)c1ccc(C(=O)N[C@@H](CNC(=O)c2ccno2)C(=O)O)c(Cl)c1` [Example 256], the pIC50 in assay [1] (Mus musculus, T-lymphocyte) is 6.28; in assay [2], 9.10.
On the same counts, the results for `COc1cscc1C(=O)NC[C@H](NC(=O)c1ccc(C(=O)NCc2cccc(O)c2)cc1Cl)C(=O)O` [Example 257] are 5.85 and 8.92.
The corresponding values for `COc1c(C(=O)NC[C@H](NC(=O)c2ccc(C(=O)NCc3cccc(O)c3)cc2Cl)C(=O)O)csc1Cl` [Example 258, N-[2-chloro-4-[[[(3-hydroxyphenyl)methyl]amino]carbonyl]benzoyl]-3-(5-chloro-4-methoxythiophene-3-carbonyl)amino-L-alanine] are 5.43 and 8.66.
Take `O=C(NCc1cccc(O)c1)c1ccc(C(=O)N[C@@H](CNC(=O)c2ccoc2)C(=O)O)c(Cl)c1` [Example 259, N-[2-chloro-4-[[[(3-hydroxyphenyl)methyl]amino]carbonyl]benzoyl]-3-(furan-3-carbonyl)amino-L-alanine]: the pIC50 in assay [1] (Mus musculus, T-lymphocyte) is 6.59; in assay [2] it was 8.92.
On the same counts, the results for `NCCCC(=O)NC[C@H](NC(=O)c1ccc(C(=O)NCc2cccc(O)c2)cc1Cl)C(=O)O` [Example 261, N-[2-chloro-4-[[[(3-hydroxyphenyl)methyl]amino]-carbonyl]benzoyl]-3-(4-aminobutanoylamino)-L-alanine] are 6.11 and 8.66.
On the same counts, the results for `O=C(NCc1cccc(O)c1)c1ccc(C(=O)N[C@@H](CNC(=O)C2CCNCC2)C(=O)O)c(Cl)c1` [Example 262] are 5.74 and 8.32.
For the compound `NC1(C(=O)NC[C@H](NC(=O)c2ccc(C(=O)NCc3cccc(O)c3)cc2Cl)C(=O)O)CCCC1` [Example 263], the pIC50 was 5.68 in assay [1] (Mus musculus, T-lymphocyte) and 8.38 in assay [2].
In the case of `N[C@H]1CC[C@@H](C(=O)NC[C@H](NC(=O)c2ccc(C(=O)NCc3cccc(O)c3)cc2Cl)C(=O)O)CC1` [Example 264], the pIC50 in assay [1] (Mus musculus, T-lymphocyte) was 5.71; in assay [2], 8.34.
As for `Nc1cccn(CC(=O)NC[C@H](NC(=O)c2ccc(C(=O)NCc3cccc(O)c3)cc2Cl)C(=O)O)c1=O` [Example 266], the pIC50 is 5.52 in assay [1] (Mus musculus, T-lymphocyte) and 8.34 in assay [2].
The corresponding values for `O=C(O)c1cccc(C(=O)NC[C@H](NC(=O)c2ccc(C(=O)NCc3cccc(O)c3)cc2Cl)C(=O)O)c1` [Example 297] are 5.78 and 9.10.
For the compound `O=C(O)CCCC(=O)NC[C@H](NC(=O)c1ccc(C(=O)NCc2cccc(O)c2)cc1Cl)C(=O)O` [Example 298], the pIC50 was 5.74 in assay [1] (Mus musculus, T-lymphocyte) and 8.32 in assay [2].
The corresponding values for `O=C(NCc1cccc(O)c1)c1ccc(C(=O)N[C@@H](CNC(=O)c2ccccc2)C(=O)O)c(Cl)c1` [Example 302, 3-benzoylamino-N-[2-chloro-4-[[[(3-hydroxyphenyl)methyl]amino]carbonyl]benzoyl]-L-alanine] are 6.51 and 9.05.
With `O=C(NCc1cccc(O)c1)c1ccc(C(=O)N[C@@H](CNC(=O)c2cccs2)C(=O)O)c(Cl)c1` [Example 303, N-[2-chloro-4-[[[(3-hydroxyphenyl)methyl]amino]carbonyl]benzoyl]-3-(thiophene-2-carbonyl)amino-L-alanine], the pIC50 was 7.15 in assay [1] (Mus musculus, T-lymphocyte) and 9.30 in assay [2].
Consider `O=C(NCc1cccc(O)c1)c1ccc(C(=O)N[C@@H](CNC(=O)c2cccs2)C(=O)O)c(Cl)c1` [Example 305, N-[2-chloro-4-[[[(3-hydroxyphenyl)methyl]amino]carbonyl]benzoyl]-3-(thiophene-2-carbonyl)amino-L-alanine, sodium salt], for which the pIC50 in assay [1] (sodium salt) is 7.00; in assay [2], 9.00.
In the case of `O=C(NCc1cccc2[nH]ccc12)c1ccc(C(=O)N[C@@H](CNC(=O)c2ccccc2)C(=O)O)c(Cl)c1` [Example 314, 3-(benzoylamino)-N-[2-chloro-4-[[(1H-indol-4-ylmethyl)amino]carbonyl]benzoyl]-L-alanine], the pIC50 was 6.20 in assay [1] (Mus musculus, T-lymphocyte) and 8.72 in assay [2].
On the same counts, the results for `O=C(NCc1cccc2[nH]ccc12)c1ccc(C(=O)N[C@@H](CNC(=O)c2ccoc2)C(=O)O)c(Cl)c1` [Example 316] are 6.37 and 8.89.
For the compound `Cc1ccc(C(=O)NC[C@H](NC(=O)c2ccc(C(=O)NCc3cccc4[nH]ccc34)cc2Cl)C(=O)O)s1` [Example 317], the pIC50 was 5.76 in assay [1] (Mus musculus, T-lymphocyte) and 8.46 in assay [2].
